Assay results taken from PubChem BioAssay AID2060908 (Molecular Pharmacology Branch, DTP, NCI, 2025).

System: 186277-243-T-J2-PDC complex spheroids, viability
Assay: Anticancer human tumor 186277-243-T-J2-PDC patient-derived colon adenocarcinoma cell line growth inhibition [RAS]
Conditions: for IC50: curve of first compound; for viability, T/C: stronger effect = lower value; active = viability on the fitted dose curve at most 10% of control; inactive = the rest
Summary of the method: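 Agents were tested in combination matrices in half-log decrements from a top concentration at or near clinical Cmax (10 microM if undetermined). Targets were multi-cell spheroids of tumour lines plus HUVEC and MSC stromal cells.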

[1] = second compound 0.000949 µM, first compound 0.0316 µM
[2] = second compound 0.000949 µM, first compound 0.1 µM
[3] = second compound 0.000949 µM, first compound 0.316 µM
[4] = second compound 0.000949 µM, first compound 1 µM
[5] = second compound 0.003 µM, first compound 0.0316 µM
[6] = second compound 0.003 µM, first compound 0.1 µM
[7] = second compound 0.003 µM, first compound 0.316 µM
[8] = second compound 0.003 µM, first compound 1 µM
[9] = second compound 0.00949 µM, first compound 0.0316 µM
[10] = second compound 0.00949 µM, first compound 0.1 µM
[11] = second compound 0.00949 µM, first compound 0.316 µM
[12] = second compound 0.00949 µM, first compound 1 µM
[13] = second compound 0.03 µM, first compound 0.0316 µM
[14] = second compound 0.03 µM, first compound 0.1 µM
[15] = second compound 0.03 µM, first compound 0.316 µM
[16] = second compound 0.03 µM, first compound 1 µM
[17] = second compound 0.0949 µM, first compound 0.0316 µM
[18] = second compound 0.0949 µM, first compound 0.1 µM
[19] = second compound 0.0949 µM, first compound 0.316 µM
[20] = second compound 0.0949 µM, first compound 1 µM
[21] = second compound 0.3 µM, first compound 0.0316 µM
[22] = second compound 0.3 µM, first compound 0.1 µM
[23] = second compound 0.3 µM, first compound 0.316 µM
[24] = second compound 0.3 µM, first compound 1 µM
[25] = second compound 0.000949 µM, first compound 3.16 µM
[26] = second compound 0.000949 µM, first compound 10 µM
[27] = second compound 0.003 µM, first compound 3.16 µM
[28] = second compound 0.003 µM, first compound 10 µM
[29] = second compound 0.00949 µM, first compound 3.16 µM
[30] = second compound 0.00949 µM, first compound 10 µM
[31] = second compound 0.03 µM, first compound 3.16 µM
[32] = second compound 0.03 µM, first compound 10 µM
[33] = second compound 0.0949 µM, first compound 3.16 µM
[34] = second compound 0.0949 µM, first compound 10 µM
[35] = second compound 0.3 µM, first compound 3.16 µM
[36] = second compound 0.3 µM, first compound 10 µM
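Also: spheroids exposed to compounds for 7 days before viability read.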

C=CC(=O)Nc1cc(Nc2nccc(-c3cn(C)c4ccccc34)n2)c(OC)cc1N(C)CCN(C)C + CCn1c(-c2cc(N3CCN(C)CC3)cnc2C(C)OC)c2c3cc(ccc31)-c1csc(n1)CC(NC(=O)C1CC1C)C(=O)N1CCCC(N1)C(=O)OCC(C)(C)C2
10.9 nM: IC50 (second compound 0.00949 µM)
> 1000 nM: IC50 (second compound 0.000949 µM)
inactive: viability, T/C (second compound 0.000949 µM, first compound 0.00316 µM) 103% | viability, T/C (second compound 0.000949 µM, first compound 0.01 µM) 112% | viability, T/C [1] 107% | viability, T/C [2] 115% | viability, T/C [3] 85.2% | viability, T/C [4] 52.6% | viability, T/C (second compound 0.003 µM, first compound 0.00316 µM) 106% | viability, T/C (second compound 0.003 µM, first compound 0.01 µM) 104% | viability, T/C [5] 91.8% | viability, T/C [6] 81.6% | viability, T/C [7] 52.3% | viability, T/C [8] 15.8% | viability, T/C (second compound 0.00949 µM, first compound 0.00316 µM) 58.3% | viability, T/C (second compound 0.00949 µM, first compound 0.01 µM) 48.7% | viability, T/C [9] 40.6% | viability, T/C [10] 28.8% | viability, T/C [11] 10.8% | viability, T/C (second compound 0.03 µM, first compound 0.00316 µM) 18.4% | viability, T/C (second compound 0.03 µM, first compound 0.01 µM) 15.4% | viability, T/C [13] 12.1%
active: viability, T/C [12] 5.19% | viability, T/C [14] 9.43% | viability, T/C [15] 5.63% | viability, T/C [16] 4.11% | viability, T/C (second compound 0.0949 µM, first compound 0.00316 µM) 7.42% | viability, T/C (second compound 0.0949 µM, first compound 0.01 µM) 6.89% | viability, T/C [17] 5.88% | viability, T/C [18] 4.8% | viability, T/C [19] 4.22% | viability, T/C [20] 2.72% | viability, T/C (second compound 0.3 µM, first compound 0.00316 µM) 6% | viability, T/C (second compound 0.3 µM, first compound 0.01 µM) 6% | viability, T/C [21] 4.87% | viability, T/C [22] 4.47% | viability, T/C [23] 4.17% | viability, T/C [24] 2.68%
< 3.16 nM: IC50 (second compound 0.03 µM) | IC50 (second compound 0.0949 µM) | IC50 (second compound 0.3 µM)
348 nM: IC50 (second compound 0.003 µM)

Cc1nc(N2CCC3(CC2)COC(C)C3N)c(CO)nc1Sc1ccnc(N)c1Cl (stereo unspecified) + CCn1c(-c2cccnc2C(C)OC)c2c3cc(ccc31)N1CCOC(CC(NC(=O)C(C(C)C)N(C)C(=O)C3(F)CCN(C(=O)C#CC(C)(C)N(C)C)CC3)C(=O)N3CCCC(N3)C(=O)OCC(C)(C)C2)C1
> 10000 nM: IC50 (second compound 0.000949 µM) | IC50 (second compound 0.003 µM) | IC50 (second compound 0.00949 µM) | IC50 (second compound 0.03 µM) | IC50 (second compound 0.0949 µM) | IC50 (second compound 0.3 µM)
inactive: viability, T/C [1] 88.9% | viability, T/C [2] 85.4% | viability, T/C [3] 111% | viability, T/C [4] 104% | viability, T/C [25] 141% | viability, T/C [26] 131% | viability, T/C [5] 91.8% | viability, T/C [6] 100% | viability, T/C [7] 98.2% | viability, T/C [8] 114% | viability, T/C [27] 133% | viability, T/C [28] 130% | viability, T/C [9] 99.9% | viability, T/C [10] 130% | viability, T/C [11] 105% | viability, T/C [12] 113% | viability, T/C [29] 132% | viability, T/C [30] 128% | viability, T/C [13] 92.3% | viability, T/C [14] 110% | viability, T/C [15] 108% | viability, T/C [16] 126% | viability, T/C [31] 137% | viability, T/C [32] 116% | viability, T/C [17] 98.2% | viability, T/C [18] 123% | viability, T/C [19] 117% | viability, T/C [20] 127% | viability, T/C [33] 137% | viability, T/C [34] 101% | viability, T/C [21] 122% | viability, T/C [22] 114% | viability, T/C [23] 107% | viability, T/C [24] 92.9% | viability, T/C [35] 92.1% | viability, T/C [36] 62.8%

CC(=O)OC12COC1CC(O)C1(C)C(=O)C(O)C3=C(C)C(OC(=O)C(O)C(NC(=O)OC(C)(C)C)c4ccccc4)CC(O)(C(OC(=O)c4ccccc4)C21)C3(C)C (stereo unspecified) + CCn1c(-c2cccnc2C(C)OC)c2c3cc(ccc31)N1CCOC(CC(NC(=O)C(C(C)C)N(C)C(=O)C3(F)CCN(C(=O)C#CC(C)(C)N(C)C)CC3)C(=O)N3CCCC(N3)C(=O)OCC(C)(C)C2)C1
< 31.6 nM: IC50 (second compound 0.000949 µM) | IC50 (second compound 0.003 µM) | IC50 (second compound 0.00949 µM) | IC50 (second compound 0.03 µM) | IC50 (second compound 0.0949 µM) | IC50 (second compound 0.3 µM)
active: viability, T/C [1] 6.09% | viability, T/C [2] 4.29% | viability, T/C [3] 4.45% | viability, T/C [4] 5% | viability, T/C [25] 4.34% | viability, T/C [26] 4.13% | viability, T/C [5] 6% | viability, T/C [6] 5.13% | viability, T/C [7] 5.03% | viability, T/C [8] 4.41% | viability, T/C [27] 4.14% | viability, T/C [28] 4.35% | viability, T/C [9] 6.17% | viability, T/C [10] 4.96% | viability, T/C [11] 4.57% | viability, T/C [12] 4.98% | viability, T/C [29] 4.48% | viability, T/C [30] 3.96% | viability, T/C [13] 5.87% | viability, T/C [14] 4.93% | viability, T/C [15] 4.72% | viability, T/C [16] 3.83% | viability, T/C [31] 4.63% | viability, T/C [32] 4.2% | viability, T/C [17] 5.78% | viability, T/C [18] 4.53% | viability, T/C [19] 4.78% | viability, T/C [20] 4.23% | viability, T/C [33] 4.24% | viability, T/C [34] 4.22% | viability, T/C [21] 4.84% | viability, T/C [22] 3.52% | viability, T/C [23] 3.6% | viability, T/C [24] 3.55% | viability, T/C [35] 3.32% | viability, T/C [36] 3.72%
